Results: US7560468B2, “Substituted 1,4,8-triazaspiro[4,5]decan-2-one compounds” (Gruenenthal GmbH, priority 2004, dated 2009)

What was measured:
5-HT transporter = target: T1, 5-HT transporter (Rattus norvegicus, UniProt P31652); assay: Inhibition of 5-HT uptake in synaptosomes; type: biochemical; conditions: for inhibition at 1 µM: read-out: Uptake_5-HT, rat, 1 μM, % inhibition
T1 construct: from tissue; host or cells: rat brain synaptosomes (marrow/medulla and pons), P2 fraction

[1] = test system: batrachotoxin (BTX) binding site of the sodium channel; assay: Affinity to the batrachotoxin (BTX) binding site of the sodium channel; conditions: rat cerebrocortex synaptosomes, [3H]-batrachotoxinin A20 α-benzoate 10 nM; test concentration not given

T1 sequence (P31652 whole entry): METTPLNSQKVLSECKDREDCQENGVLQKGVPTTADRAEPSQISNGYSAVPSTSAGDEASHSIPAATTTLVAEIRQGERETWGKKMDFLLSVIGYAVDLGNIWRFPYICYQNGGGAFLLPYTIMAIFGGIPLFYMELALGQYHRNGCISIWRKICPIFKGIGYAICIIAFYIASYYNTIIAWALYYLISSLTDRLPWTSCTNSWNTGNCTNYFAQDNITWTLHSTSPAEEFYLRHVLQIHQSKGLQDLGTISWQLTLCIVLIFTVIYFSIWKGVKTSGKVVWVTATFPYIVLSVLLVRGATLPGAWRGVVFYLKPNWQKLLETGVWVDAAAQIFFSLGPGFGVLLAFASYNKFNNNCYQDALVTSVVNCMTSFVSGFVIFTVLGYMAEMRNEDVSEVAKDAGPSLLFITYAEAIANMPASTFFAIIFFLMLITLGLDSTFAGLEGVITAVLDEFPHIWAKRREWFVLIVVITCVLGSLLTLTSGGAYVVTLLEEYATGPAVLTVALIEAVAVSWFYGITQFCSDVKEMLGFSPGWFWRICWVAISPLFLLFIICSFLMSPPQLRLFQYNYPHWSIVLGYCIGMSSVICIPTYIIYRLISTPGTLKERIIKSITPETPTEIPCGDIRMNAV

Compound | inhibition at 1 µM (5-HT transporter) [%] | Uptake_5-HT, rat, 1 μM, % inhibition (5-HT transporter) [%] | BTX Inhibition [1] | Km (5-HT transporter; read-out: 5-HT uptake: Km, characteristic data of the 5-HT transporter) [µM]
COC(=O)c1ccc(CN2C(=O)C(C(C)C)NC23CCN(C(=O)Nc2ccc(Cl)c(C(F)(F)F)c2)CC3)cc1 (stereo not shown) [Example 241, Methyl 4-[8-(4-chloro-3-trifluoromethylbenzolcarbamoyl)-3-isopropyl-2-oxo-1,4,8-triazaspiro[4,5]dec-1-ylmethyl]-benzoate] |  | 31 | 78 | 
COc1ccc(OC)c(NC(=O)N2CCC3(CC2)NC(CCSC)C(=O)N3Cc2cccc(C#N)c2)c1 (stereo not shown) [Example 242, 1-(3-Cyanobenzyl)-3-(2-methylsulfanylethyl)-2-oxo-1,4,8-triazaspiro[4,5]decan-8-carboxylic acid (2,5-dimethoxy-benzol)amide] |  | 30 | 46 | 
CC(=O)c1cccc(NC(=S)N2CCC3(CC2)NC(Cc2ccccc2)C(=O)N3Cc2ccccc2F)c1 (stereo not shown) [Example 201, 3-Benzyl-1-(2-fluorobenzyl)-2-oxo-1,4,8-triazaspiro[4,5]decan-8-thiocarboxylic acid (3-acetylbenzol)amide] |  | 54 | 63 | 
CCOC(=O)CN1C(=O)C(Cc2ccccc2)NC12CCN(S(=O)(=O)c1c(C)cc(C)cc1C)CC2 (stereo not shown) [Example 72, Ethyl[3-benzyl-2-oxo-8-(2,4,6-trimethylbenzolsulfonyl)-1,4,8-triazaspiro[4,5]dec-1-yl]-acetate] |  | 75 | 75 | 
CCOc1ccc(NC(=S)N2CCC3(CC2)NC(CCSC)C(=O)N3Cc2ccc(F)cc2)cc1 (stereo not shown) [Example 200, 1-(4-Fluorobenzyl)-3-(2-methylsulfanylethyl)-2-oxo-1,4,8-triazaspiro[4,5]decan-8-thiocarboxylic acid (4-ethoxy-benzol)amide] |  | 30 | 30 | 
CCCCN1C(=O)C(CCSC)NC12CCN(S(=O)(=O)c1cccc(C)c1)CC2 (stereo not shown) [Example 18, 1-Butyl-3-(2-methylsulfanylethyl)-8-(toluol-3-sulfonyl)-1,4,8-triazaspiro[4,5]decan-2-one] |  | 68 | 32 | 
CC1(C)C2CCC1(CS(=O)(=O)N1CCC3(CC1)NCC(=O)N3Cc1ccccc1F)C(=O)C2 (stereo not shown) [Example 56, 8-(7,7-Dimethyl-2-oxobicyclo[2.2.1]hept-1-ylmethansulfonyl)-1-(2-fluorobenzyl)-1,4,8-triazaspiro[4,5]decan-2-one] | 60 |  | 32 | 
CSCCC1NC2(CCN(S(=O)(=O)c3cc(C)c(Cl)cc3C)CC2)N(Cc2ccc(F)cc2)C1=O (stereo not shown) [Example 26, 8-(4-Chloro-2,5-dimethylbenzolsulfonyl)-1-(4-fluorobenzyl)-3-(2-methylsulfanylethyl)-1,4,8-triazaspiro[4,5]decan-2-one] |  | 68 | 38 | 
CSCCC1NC2(CCN(S(=O)(=O)c3ccccc3C(F)(F)F)CC2)N(Cc2ccc(F)cc2)C1=O (stereo not shown) [Example 25, 1-(4-Fluorobenzyl)-3-(2-methylsulfanylethyl)-8-(2-trifluoromethylbenzolsulfonyl)-1,4,8-triazaspiro[4,5]decan-2-one] |  | 58 | 57 | 
CN1C(=O)C(Cc2ccccc2)NC12CCN(C(=O)NC1CCCCC1)CC2 (stereo not shown) [Example 202, 3-Benzyl-1-methyl-2-oxo-1,4,8-triazaspiro[4,5]decan-8-carboxylic acid cyclohexylamide] | 34 |  | 56 | 
CCCCN1C(=O)C(CCSC)NC12CCN(S(=O)(=O)c1ccc(OC)c(OC)c1)CC2 (stereo not shown) [Example 30, 1-Butyl-8-(3,4-dimethoxy-benzolsulfonyl)-3-(2-methylsulfanylethyl)-1,4,8-triazaspiro[4,5]decan-2-one] |  | 53 |  | 
CCCCN1C(=O)C(CCSC)NC12CCN(S(=O)(=O)c1ccc(C(C)=O)cc1)CC2 (stereo not shown) [Example 13, 8-(4-Acetylbenzolsulfonyl)-1-butyl-3-(2-methylsulfanylethyl)-1,4,8-triazaspiro[4,5]decan-2-one] |  | 56 |  | 
CC(C)C1NC2(CCN(S(=O)(=O)c3ccc([N+](=O)[O-])cc3)CC2)NC1=O (stereo not shown) [Example 1, 3-Isopropyl-8-(4-nitrobenzolsulfonyl)-1,4,8-triazaspiro[4,5]decan-2-one] |  | 55 |  | 
C=CCN1C(=O)C(C(C)C)NC12CCN(C(=S)Nc1ccc(F)cc1)CC2 (stereo not shown) [Example 125, 1-Allyl-3-isopropyl-2-oxo-1,4,8-triazaspiro[4,5]decan-8-thiocarboxylic acid (4-fluorobenzol)amide] |  | 34 |  | 
CCC(C)(C)c1ccc(S(=O)(=O)N2CCC3(CC2)NC(CCSC)C(=O)N3Cc2ccccc2)cc1 (stereo not shown) [Example 41, 1-Benzyl-8-[4-(1,1-dimethylpropyl)benzolesulfonyl]-3-(2-methylsulfanylethyl)-1,4,8-triazaspiro[4,5]decan-2-one] |  | 56 |  | 
C=CCN1C(=O)C(CCSC)NC12CCN(S(=O)(=O)Cc1ccccc1)CC2 (stereo not shown) [Example 58, 1-Allyl-3-(2-methylsulfanylethyl)-8-benzolmethansulfonyl-1,4,8-triazaspiro[4,5]decan-2-one] |  | 56 |  | 
NCCc1c[nH]c2ccc(O)cc12 [Example 5-HT, serotonin, reference compound] |  |  |  | 0.084 ± 0.011
CC(C)C1NC2(CCN(S(=O)(=O)c3ccc([N+](=O)[O-])cc3)CC2)N(Cc2cccc(C#N)c2)C1=O (stereo not shown) [Example 52, 3-[3-Isopropyl-8-(4-nitrobenzolsulfonyl)-2-oxo-1,4,8-triazaspiro[4,5]dec-1-ylmethyl]-benzonitrile] |  | 53 |  | 
CCOC(=O)CN1C(=O)C(Cc2ccccc2)NC12CCN(C(=S)NC(=O)OCC)CC2 (stereo not shown) [Example 144, Ethyl(3-benzyl-8-ethoxycarbonylaminocarbothioyl-2-oxo-1,4,8-triazaspiro[4,5]dec-1-yl)acetate] | 47 |  |  | 
CSCCC1NC2(CCN(C(=O)Nc3cccc(F)c3)CC2)N(Cc2ccccc2C#N)C1=O (stereo not shown) [Example 226, 1-(2-Cyanobenzyl)-3-(2-methylsulfanylethyl)-2-oxo-1,4,8-triazaspiro[4,5]decan-8-carboxylic acid (3-fluorobenzol)amide] |  | 55 |  | 

Second part, led by results:

inhibition at 1 µM (5-HT transporter) [%] | Compound | Uptake_5-HT, rat, 1 μM, % inhibition (5-HT transporter) [%] | BTX Inhibition [1] | Km (5-HT transporter; read-out: 5-HT uptake: Km, characteristic data of the 5-HT transporter) [µM]
40 | COC(=O)c1ccccc1S(=O)(=O)N1CCC2(CC1)NC(CCSC)C(=O)N2Cc1ccccc1C#N (stereo not shown) [Example 38, Methyl 2-[1-(2-cyanobenzyl)-3-(2-methylsulfanylethyl)-2-oxo-1,4,8-triazaspiro[4,5]decan-8-sulfonyl]-benzoate] |  |  | 
70 | CCCCS(=O)(=O)N1CCC2(CC1)NC(Cc1ccccc1)C(=O)N2CC(=O)OCC (stereo not shown) [Example 62, Ethyl[3-benzyl-8-(butan-1-sulfonyl)-2-oxo-1,4,8-triazaspiro[4,5]dec-1-yl]-acetate] |  |  | 
58 | CCCCN1C(=O)C(CCSC)NC12CCN(S(=O)(=O)c1ccc(Cl)s1)CC2 (stereo not shown) [Example 12, 1-Butyl-8-(5-chlorothiophen-2-sulfonyl)-3-(2-methylsulfanylethyl)-1,4,8-triazaspiro[4,5]decan-2-one] |  |  | 
44 | CCCCN1C(=O)C(C(C)C)NC12CCN(S(=O)(=O)c1ccccc1C(=O)OC)CC2 (stereo not shown) [Example 15, Methyl 2-(1-butyl-3-isopropyl-2-oxo-1,4,8-triazaspiro[4,5]decan-8-sulfonyl)benzoate] |  |  | 
